The source made the active and inactive calls.
Experiments:
Cytochrome P450 1A2 = target: T1, Cytochrome P450 1A2 (Homo sapiens, UniProt P05177);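 further: PubChem cytochrome P450 panel assay, CYP1A2 panel member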
T1 sequence (P05177 whole entry): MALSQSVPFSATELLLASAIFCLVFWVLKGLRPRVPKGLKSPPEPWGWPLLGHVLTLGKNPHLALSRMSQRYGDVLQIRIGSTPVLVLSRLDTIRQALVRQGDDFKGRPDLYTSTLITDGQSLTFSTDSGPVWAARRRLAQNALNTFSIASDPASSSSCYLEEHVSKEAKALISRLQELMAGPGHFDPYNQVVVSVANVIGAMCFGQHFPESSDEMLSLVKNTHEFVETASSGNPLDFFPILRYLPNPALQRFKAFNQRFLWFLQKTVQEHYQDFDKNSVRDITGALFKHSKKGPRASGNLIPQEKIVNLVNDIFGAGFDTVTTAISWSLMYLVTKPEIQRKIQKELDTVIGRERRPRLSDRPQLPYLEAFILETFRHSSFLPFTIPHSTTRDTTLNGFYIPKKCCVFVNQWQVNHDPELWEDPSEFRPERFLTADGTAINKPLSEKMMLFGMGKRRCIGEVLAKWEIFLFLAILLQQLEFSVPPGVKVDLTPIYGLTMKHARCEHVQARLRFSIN

Cytochrome P450 3A4 = Cytochrome P450 3A4 (Homo sapiens, UniProt P08684);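 further: CYP3A4 tested as one member of a cytochrome P450 panel screen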
Cytochrome P450 2C9 = Cytochrome P450 2C9 (Homo sapiens, UniProt P11712)
[1] = inhibitors of firefly luciferase expression or activity, dose response, H4 neuroglioma cells, luminescence (AID 1990); format: functional, cell-based
[2] = Luminescence Cell-Based Dose Response HTS to Identify Inhibitors of 5'UTR Stem-Loop Driven Prion Protein mRNA Translation in H4 Neuroglioblastoma Cells. [Related pubchem assays: 1827 (Project Summary), 1813 (Primary HTS)]; format: functional
[3] = inhibitors of SNCA 5'UTR-driven reporter translation, confirmation, H4 neuroglioma cells, luminescence (AID 1988); format: functional, cell-based
Cytochrome P450 2C19 = Cytochrome P450 2C19 (Homo sapiens, UniProt P33261); test: Cytochrome panel assay with activity outcomes. Panel member name: p450-cyp2c19 Compounds with AC50 equal or less than 10 uM are considered active; format: functional
Cytochrome P450 2D6 = Cytochrome P450 2D6 (Homo sapiens, UniProt P10635);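 further: CYP2D6 member of a cytochrome P450 panel assay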
[4] = target: T2, Corticotropin-releasing factor receptor 2/Corticotropin-releasing factor-binding protein (Homo sapiens, UniProt P24387+Q13324); test: activators of CRF receptor 2 with binding protein – uHTS hits, confirmation (AID 602473); format: functional; conditions: read-out: EC50_Mean
T2 sequence (Q13324 whole entry): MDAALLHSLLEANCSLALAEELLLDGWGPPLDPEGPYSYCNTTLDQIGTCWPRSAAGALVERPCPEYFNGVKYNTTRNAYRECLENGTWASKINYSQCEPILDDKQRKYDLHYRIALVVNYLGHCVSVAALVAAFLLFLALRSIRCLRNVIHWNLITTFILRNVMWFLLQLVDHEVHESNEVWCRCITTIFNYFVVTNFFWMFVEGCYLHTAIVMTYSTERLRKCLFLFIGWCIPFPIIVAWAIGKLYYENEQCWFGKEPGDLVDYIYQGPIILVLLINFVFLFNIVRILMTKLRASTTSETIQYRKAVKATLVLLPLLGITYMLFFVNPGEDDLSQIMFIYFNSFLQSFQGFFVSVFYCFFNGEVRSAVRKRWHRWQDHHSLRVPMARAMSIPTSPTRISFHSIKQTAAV
T2 sequence (P24387 whole entry): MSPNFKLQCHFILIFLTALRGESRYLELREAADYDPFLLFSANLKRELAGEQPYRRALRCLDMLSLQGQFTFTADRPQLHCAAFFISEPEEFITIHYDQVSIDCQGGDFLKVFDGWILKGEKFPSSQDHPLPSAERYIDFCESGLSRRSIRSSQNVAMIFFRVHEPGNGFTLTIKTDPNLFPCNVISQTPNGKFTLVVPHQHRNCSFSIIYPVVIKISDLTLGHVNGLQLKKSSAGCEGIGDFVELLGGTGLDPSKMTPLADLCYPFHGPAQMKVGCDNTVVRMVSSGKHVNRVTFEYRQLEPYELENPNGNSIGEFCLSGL

Sequence of Cytochrome P450 3A4 (P08684 whole entry): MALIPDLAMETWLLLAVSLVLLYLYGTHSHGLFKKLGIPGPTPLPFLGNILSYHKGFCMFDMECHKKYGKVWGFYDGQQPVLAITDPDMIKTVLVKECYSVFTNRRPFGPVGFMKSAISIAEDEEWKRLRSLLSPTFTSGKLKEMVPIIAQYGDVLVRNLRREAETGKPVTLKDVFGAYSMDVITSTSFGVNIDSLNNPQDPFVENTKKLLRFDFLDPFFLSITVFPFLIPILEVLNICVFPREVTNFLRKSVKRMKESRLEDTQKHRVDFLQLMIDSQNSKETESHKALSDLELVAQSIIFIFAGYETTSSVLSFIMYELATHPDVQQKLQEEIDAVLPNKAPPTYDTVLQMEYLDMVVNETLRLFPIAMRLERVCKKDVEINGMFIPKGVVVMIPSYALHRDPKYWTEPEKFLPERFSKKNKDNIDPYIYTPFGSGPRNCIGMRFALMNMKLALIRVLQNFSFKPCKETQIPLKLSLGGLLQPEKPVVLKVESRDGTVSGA
Sequence of Cytochrome P450 2C9 (P11712 whole entry): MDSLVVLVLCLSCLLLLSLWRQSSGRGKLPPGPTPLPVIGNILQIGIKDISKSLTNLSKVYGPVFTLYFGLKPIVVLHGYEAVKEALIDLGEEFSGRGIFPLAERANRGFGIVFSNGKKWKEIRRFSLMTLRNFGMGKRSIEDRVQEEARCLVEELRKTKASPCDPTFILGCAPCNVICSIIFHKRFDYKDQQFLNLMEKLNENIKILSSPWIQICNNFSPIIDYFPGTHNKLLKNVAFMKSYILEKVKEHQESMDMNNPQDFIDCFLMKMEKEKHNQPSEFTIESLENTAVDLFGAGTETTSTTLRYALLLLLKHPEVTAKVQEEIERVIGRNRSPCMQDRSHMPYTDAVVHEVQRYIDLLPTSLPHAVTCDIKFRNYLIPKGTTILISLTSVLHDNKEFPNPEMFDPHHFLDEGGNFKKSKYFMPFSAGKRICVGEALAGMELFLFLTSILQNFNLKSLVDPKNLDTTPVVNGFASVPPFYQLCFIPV
Sequence of Cytochrome P450 2D6 (P10635 whole entry): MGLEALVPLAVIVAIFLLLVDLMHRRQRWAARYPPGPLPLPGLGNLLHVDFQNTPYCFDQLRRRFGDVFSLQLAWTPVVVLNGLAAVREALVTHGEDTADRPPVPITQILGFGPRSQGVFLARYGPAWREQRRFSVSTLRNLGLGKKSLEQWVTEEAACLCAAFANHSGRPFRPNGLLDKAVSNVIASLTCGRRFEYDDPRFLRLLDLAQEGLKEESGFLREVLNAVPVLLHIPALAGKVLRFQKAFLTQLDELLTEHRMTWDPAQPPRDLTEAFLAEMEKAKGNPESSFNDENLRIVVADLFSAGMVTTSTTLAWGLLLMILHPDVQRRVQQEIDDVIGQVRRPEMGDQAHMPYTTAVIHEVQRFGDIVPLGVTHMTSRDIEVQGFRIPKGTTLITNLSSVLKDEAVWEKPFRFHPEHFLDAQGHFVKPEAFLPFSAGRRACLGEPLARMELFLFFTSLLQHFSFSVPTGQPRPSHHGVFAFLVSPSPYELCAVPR
Sequence of Cytochrome P450 2C19 (P33261 whole entry): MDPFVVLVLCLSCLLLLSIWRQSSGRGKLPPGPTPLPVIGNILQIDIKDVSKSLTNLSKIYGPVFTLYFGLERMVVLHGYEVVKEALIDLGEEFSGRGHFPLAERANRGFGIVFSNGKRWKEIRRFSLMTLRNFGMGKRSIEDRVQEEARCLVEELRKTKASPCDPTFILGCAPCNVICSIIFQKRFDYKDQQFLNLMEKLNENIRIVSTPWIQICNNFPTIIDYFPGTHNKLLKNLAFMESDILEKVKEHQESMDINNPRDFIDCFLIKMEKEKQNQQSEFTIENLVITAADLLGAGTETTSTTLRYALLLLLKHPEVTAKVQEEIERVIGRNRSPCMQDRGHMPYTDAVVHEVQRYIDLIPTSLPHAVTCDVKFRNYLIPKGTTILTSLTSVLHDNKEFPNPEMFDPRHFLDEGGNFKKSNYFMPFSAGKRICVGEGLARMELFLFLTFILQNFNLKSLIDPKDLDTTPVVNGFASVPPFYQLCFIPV

## CCOC(=O)c1c(C)n(C)c2ccc(OC)c(NS(=O)(=O)c3ccc(Cl)s3)c12
Cytochrome P450 1A2
  AC50: 5.62 µM (inconclusive)
Cytochrome P450 3A4
  AC50: 1.58 µM (inconclusive)
Cytochrome P450 2C9
  AC50: 3.16 µM (inconclusive)

## COc1ccc(-n2c(SCC(=O)Nc3ccccc3)nnc2-c2ccoc2C)cc1
[1]
  EC50: > 120 µM (not active)
[2]
  EC50: 29.7 µM (active)
[3]
  EC50: 15.9 µM (active)

## CNc1ncncc1-c1ccccc1CN(C)C
Cytochrome P450 2C19
  AC50: inconclusive

## COC(=O)[C@@H](NC(=O)Nc1ccc(C(C)=O)cc1)C(C)C
Cytochrome P450 2C9
  AC50: 3.55 µM (inconclusive)

## COc1cccc(Cn2c(=O)c(C)nc3cnc(Nc4ccccc4)nc32)c1
Cytochrome P450 2D6
  AC50: 1 µM (inconclusive)

## COc1cccc(Nc2ncc3nc(-c4cccs4)c(=O)n(-c4ccccc4)c3n2)c1
Cytochrome P450 1A2
  AC50: 3.16 µM (inconclusive)
Cytochrome P450 3A4
  AC50: 20 µM (inconclusive)

## COc1ccc(-n2c(=O)c(CCc3ccccc3)nc3cnc(OC)nc32)cc1
Cytochrome P450 2D6
  AC50: 20 µM (inconclusive)
Cytochrome P450 2C9
  AC50: 7.94 µM (inconclusive)

## Cc1cc(C)c(OCC(=O)Nc2ccccc2N2CCOCC2)c(C)c1
[4]
  EC50: > 53 µM (inactive)

## c1csc(CNc2ncncc2-c2ccoc2)c1
Cytochrome P450 2C9
  AC50: 0.794 µM (inconclusive)

## O=C1c2ccccc2NC(c2ccc(F)cc2)N1Cc1ccco1 (centres undefined)
Cytochrome P450 2D6
  AC50: 0.398 µM (inconclusive)
Cytochrome P450 3A4
  AC50: 14.1 µM (inconclusive)

## Cc1cc2cccc(C)c2nc1SCC(=O)N(C)c1nc(-c2ccccc2)cs1
Cytochrome P450 2C9
  AC50: 2.82 µM (inconclusive)

## CCOc1cc2[nH]c(=O)n(CCC(=O)NCc3ccc(OC)cc3)c(=O)c2cc1OCC
Cytochrome P450 2C9
  AC50: 2 µM (inconclusive)

## COc1cccc(NC(=O)Cc2c(C(=O)O)[nH]c3ccccc23)c1
Cytochrome P450 3A4
  AC50: 15.8 µM (inconclusive)
Cytochrome P450 2C9
  AC50: 22.4 µM (inconclusive)

## O=c1cnc2cnc(Nc3ccccc3)nc2n1C1CC1
Cytochrome P450 2C19; read-out: AC50
  AC50: 20 µM (inconclusive)
Cytochrome P450 3A4
  AC50: 25.1 µM (inconclusive)
Cytochrome P450 2C9
  AC50: 31.6 µM (inconclusive)

## COC(=O)N1CCC2(CCCN(Cc3ccc(C#N)cc3)C2)CC1
Cytochrome P450 2C19; read-out: AC50
  AC50: 7.94 µM (inconclusive)
Cytochrome P450 3A4
  AC50: 15.8 µM (inconclusive)

## Cc1cccc(/C=C2\CCC(=C3SCCCS3)C2=O)c1
[1]
  EC50: 5.22 µM (active)
[2]
  EC50: 9.28 µM (active)
[3]
  EC50: 8.14 µM (active)

## CCCNS(=O)(=O)c1ccc(Oc2ncc(C(F)(F)F)cc2Cl)cc1
[4]
  EC50: > 53 µM (inactive)

## O=C1c2ccccc2C(=O)N1CC1CCCO1 (centres undefined)
Cytochrome P450 2C19; read-out: AC50
  AC50: 0.355 µM (inconclusive)
Cytochrome P450 2C9
  AC50: 0.398 µM (inconclusive)

## CC(CNC(=O)c1ccc(NC2=NC3CS(=O)(=O)CC3S2)cc1)c1ccccc1 (centres undefined)
[4]
  EC50: > 53 µM (inactive)

## O=C(NCC(c1ccco1)N1CCCC1)c1cc2cc(Cl)ccc2o1 (centres undefined)
[4]
  EC50: > 53 µM (inactive)

## CC(=O)Nc1ccc(S(=O)(=O)NC(CC(=O)NCCC2=CCCCC2)C(C)C)cc1 (centres undefined)
Cytochrome P450 2D6
  AC50: 0.708 µM (inconclusive)
Cytochrome P450 2C9
  AC50: 8.91 µM (inconclusive)

## c1ccc2sc(N3CCN(Cc4ccc5c(c4)OCO5)CC3)nc2c1
Cytochrome P450 2D6
  AC50: 39.8 µM (inconclusive)
Cytochrome P450 2C9
  AC50: 7.94 µM (inconclusive)

## CCCN[C@@H]1CCc2c(OC)cccc2[C@@H]1C
Cytochrome P450 1A2
  AC50: 31.6 µM (inconclusive)

## C/C(=N\OCc1cccc(C(=O)O)c1)c1ccc(Cl)cc1
[1]
  EC50: 7.12 µM (inconclusive)
[2]
  EC50: 0.254 µM (active)
[3]
  EC50: 4.77 µM (active)

## COc1ccc(/C(O)=C(\C#N)c2nc3ccccc3n2C)cc1OC
Cytochrome P450 2C19; read-out: AC50
  AC50: 39.8 µM (inconclusive)
Cytochrome P450 2D6
  AC50: 1.58 µM (inconclusive)
Cytochrome P450 3A4
  AC50: 3.55 µM (inconclusive)
Cytochrome P450 2C9
  AC50: 0.251 µM (inconclusive)

## COc1ccccc1CNc1ncncc1-c1cccc(NS(C)(=O)=O)c1
Cytochrome P450 2D6
  AC50: 12.6 µM (inconclusive)

## CN(CCc1ccc(Cl)c(Cl)c1)C[C@@H](O)COc1ccc(NS(C)(=O)=O)cc1
Cytochrome P450 1A2
  AC50: 15.8 µM (inconclusive)
Cytochrome P450 3A4
  AC50: 15.8 µM (inconclusive)

From ChEMBL document CHEMBL1201862, “PubChem BioAssay data set” (2004)
